The results in this text go back to US11253516B2, “N2,N4-diphenylpyrimidine-2,4-diamine derivative, method for preparing same, and pharmaceutical composition containing same as active ingredient for prevention or treatment of cancer” (Korea Research Institute of Chemical Technology, priority 2017, dated 2022).

In test [1] the test system is Ba/F3 EGFR del19 cell line. In words: CellTiter-Glo cell viability, Ba/F3 EGFR del19. Particulars: 72 hours. The class given is cell-based. The protocol:
(§1) The measurement of an activity on wild-type and mutation Ba/F3 EGFR cell line of the compound of the present invention was experimented by utilizing the CellTiter-Glo system sold by Promega, as follow. The CellTiter-Glo assay is a method for measuring the ATP present in cells in cell culture conditions to determine the cell viability.
(§2) The analysis of an EGFR inhibitory ability effect of the compound was carried out in accordance with the analysis reaction recipe below.
(§3) After the reaction of 72 hours, the plate treated with the compound was allowed to stand for 30 minutes at ambient temperature, and then, was further treated with 100 μl of the reagent, and was shaked for 10 minutes at ambient temperature. […] The measurement values measured at the eight concentrations of the compound were analyzed by using the Prism program (version 5.01, Graphpad Software, Inc.), and IC50 value of the compound was calculated, which is an inhibitory ability indicator.
For orientation: Cellular ATP, detected with luciferase, serves as a proxy for viable cell number.

Another test deals with Ba/F3 EGFR wt. cell line. In words: CellTiter-Glo cell viability, Ba/F3 EGFR wild-type. The following applies: 72 hours. The class given is cell-based. The protocol: as §1, §2, §3
The target of another test is EGFR wt. (Homo sapiens (Human), UniProt P00533). In words: HTRF enzyme assay, wild-type EGFR. The class given is biochemical. The following applies: recombinant enzyme. On the procedure: (§4) The measurement of an activity on wild-type and EGFR mutation enzyme of the compound of the present invention was experimented by utilizing the HTRF system sold by Cisbio, as follow.
Sequence of EGFR wt. (P00533 25-1210): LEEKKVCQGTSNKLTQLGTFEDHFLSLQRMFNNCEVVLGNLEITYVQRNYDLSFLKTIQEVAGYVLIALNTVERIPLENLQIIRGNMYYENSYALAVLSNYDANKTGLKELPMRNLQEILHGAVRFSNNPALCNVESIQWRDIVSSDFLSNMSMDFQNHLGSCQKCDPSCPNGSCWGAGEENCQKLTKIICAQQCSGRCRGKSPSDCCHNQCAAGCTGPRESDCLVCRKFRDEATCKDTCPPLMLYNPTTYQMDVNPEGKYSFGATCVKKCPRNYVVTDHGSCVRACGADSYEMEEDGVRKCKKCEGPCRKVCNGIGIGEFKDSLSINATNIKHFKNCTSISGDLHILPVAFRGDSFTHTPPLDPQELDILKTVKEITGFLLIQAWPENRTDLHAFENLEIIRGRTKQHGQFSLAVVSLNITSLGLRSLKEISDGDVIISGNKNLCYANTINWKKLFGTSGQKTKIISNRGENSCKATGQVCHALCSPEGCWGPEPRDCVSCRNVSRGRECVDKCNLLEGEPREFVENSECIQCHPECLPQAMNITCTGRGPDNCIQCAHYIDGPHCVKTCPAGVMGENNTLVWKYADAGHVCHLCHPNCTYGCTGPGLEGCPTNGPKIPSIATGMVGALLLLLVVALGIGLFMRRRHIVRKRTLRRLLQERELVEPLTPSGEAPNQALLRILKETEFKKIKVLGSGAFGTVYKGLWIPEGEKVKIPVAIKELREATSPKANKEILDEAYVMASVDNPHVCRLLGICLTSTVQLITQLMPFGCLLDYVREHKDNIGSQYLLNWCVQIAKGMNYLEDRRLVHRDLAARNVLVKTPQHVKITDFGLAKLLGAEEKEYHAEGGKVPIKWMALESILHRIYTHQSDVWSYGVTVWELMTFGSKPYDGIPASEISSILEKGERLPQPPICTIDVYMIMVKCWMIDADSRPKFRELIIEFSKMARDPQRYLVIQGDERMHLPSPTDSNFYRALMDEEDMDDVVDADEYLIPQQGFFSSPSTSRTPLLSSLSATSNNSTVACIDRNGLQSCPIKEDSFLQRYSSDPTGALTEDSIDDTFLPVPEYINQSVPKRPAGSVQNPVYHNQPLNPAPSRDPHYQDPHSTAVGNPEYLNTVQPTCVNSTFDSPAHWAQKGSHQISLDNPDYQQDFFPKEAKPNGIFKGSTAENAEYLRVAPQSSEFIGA
(§5) The composition of the assay buffer used in the activity measurement was 50 mM Tris-HCl pH 7.5, 100 mM NaCl, 7.5 mM MgCl2, 3 mM KCl, 0.01% Tween 20, 0.1% BSA, 1 mM DTT. The enzymatic reaction was carried out hereto by using the peptide substrate labeled with ATP of […] concentration and biotin of […] concentration. The analysis of an EGFR activity inhibitory effect of the compound was carried out in accordance with the analysis reaction recipe below.
(§6) Component 1: […] of EGFR wild-type or mutation enzyme
(§7) Component 2: […] of compound solution
(§8) Component 3: […] of peptide labeled with ATP and biotin
(§9) The enzymatic reaction was initiated by mixing Component 1 and Component 2 first, and then, adding component 3. After the reaction for 2 hours at 37° C., […] of a measurement solution consisting of streptavidin-XL665 provided by Cisbio and anti-phosphotyrosine antibody labeled with europium was added to the enzymatic reaction solution and reacted for 1 hour at ambient temperature. […] The measurement values measured at the seven concentrations of the compound were analyzed by using the Prism program (version 5.01, Graphpad Software, Inc.), and IC50 value of the compound was calculated, which is an inhibitory ability indicator.
In general terms: Time-resolved FRET reads energy transfer from a long-lived donor to a nearby acceptor.

Test [2] concerns Ba/F3 EGFR del19/T790M/C797S cell line. In words: CellTiter-Glo cell viability, Ba/F3 EGFR del19/T790M/C797S. The following applies: read-out: Ba/F3 EGFR del19/T790M/C797S IC50. It is filed as cell-based. On the procedure:
as §1, §2
(§10) After the reaction of 72 hours, the plate treated with the compound was allowed to stand for 30 minutes at ambient temperature, and then, was further treated with 100 μl of the reagent, and was shaked for 10 minutes at ambient temperature.

The target of the next test is EGFR del19/T790M (Homo sapiens (Human), UniProt P00533, DEL746-750/T790M). In words: HTRF enzyme assay, EGFR del19/T790M. The class given is biochemical. The following applies: recombinant enzyme. The protocol:
as §4, §5, §6, §7, §8, §9

A further test deals with EGFR del19/T790M/C797S (Homo sapiens, UniProt P00533, C797S/DEL746-750/T790M). Nature of the test: HTRF enzyme assay, EGFR del19/T790M/C797S. It is filed as biochemical. On the procedure:
as §4, §5, §6, §7, §8, §9

Another test concerns the target EGFR del19 (Homo sapiens (Human), UniProt P00533, DEL746-750). In words: HTRF enzyme assay, EGFR del19. It is filed as biochemical. The following applies: recombinant enzyme. On the procedure: as §4, §5, §6, §7, §8, §9
The subject of test [3] is Ba/F3 EGFR del19/T790M cell line. Nature of the test: CellTiter-Glo cell viability, Ba/F3 EGFR del19/T790M. It is filed as cell-based. The following applies: read-out: Ba/F3 EGFR del19/T790M IC50. The protocol: as §1, §2, §10
Setting [4] is: HTRF, recombinant enzyme, read-out: EGFR del19/T790M/C797S IC50.

pIC50: −log10 of the molar value. Read-outs that look alike come from different tables or passages of the source.

Sequence of EGFR del19/T790M (P00533 other isoform, or with tags, fused parts or gaps T790M/del 1-668/del 746-750 limits assumed): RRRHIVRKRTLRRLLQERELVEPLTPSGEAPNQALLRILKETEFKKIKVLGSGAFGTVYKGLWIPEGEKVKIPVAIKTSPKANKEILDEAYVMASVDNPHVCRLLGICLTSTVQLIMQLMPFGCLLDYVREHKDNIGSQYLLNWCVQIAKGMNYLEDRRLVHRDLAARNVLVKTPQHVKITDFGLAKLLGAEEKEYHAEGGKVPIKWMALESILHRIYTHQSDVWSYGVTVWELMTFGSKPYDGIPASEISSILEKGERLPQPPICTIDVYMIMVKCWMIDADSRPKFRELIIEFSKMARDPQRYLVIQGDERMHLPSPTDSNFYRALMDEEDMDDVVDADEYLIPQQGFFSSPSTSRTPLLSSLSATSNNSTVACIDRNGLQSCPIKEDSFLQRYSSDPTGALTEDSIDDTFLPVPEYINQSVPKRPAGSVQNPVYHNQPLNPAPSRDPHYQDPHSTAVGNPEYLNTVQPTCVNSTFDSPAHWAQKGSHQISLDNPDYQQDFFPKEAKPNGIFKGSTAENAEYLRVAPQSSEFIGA
Sequence of EGFR del19/T790M/C797S (P00533 with tags, fused parts or gaps C797S/DEL746-750/T790M limits assumed): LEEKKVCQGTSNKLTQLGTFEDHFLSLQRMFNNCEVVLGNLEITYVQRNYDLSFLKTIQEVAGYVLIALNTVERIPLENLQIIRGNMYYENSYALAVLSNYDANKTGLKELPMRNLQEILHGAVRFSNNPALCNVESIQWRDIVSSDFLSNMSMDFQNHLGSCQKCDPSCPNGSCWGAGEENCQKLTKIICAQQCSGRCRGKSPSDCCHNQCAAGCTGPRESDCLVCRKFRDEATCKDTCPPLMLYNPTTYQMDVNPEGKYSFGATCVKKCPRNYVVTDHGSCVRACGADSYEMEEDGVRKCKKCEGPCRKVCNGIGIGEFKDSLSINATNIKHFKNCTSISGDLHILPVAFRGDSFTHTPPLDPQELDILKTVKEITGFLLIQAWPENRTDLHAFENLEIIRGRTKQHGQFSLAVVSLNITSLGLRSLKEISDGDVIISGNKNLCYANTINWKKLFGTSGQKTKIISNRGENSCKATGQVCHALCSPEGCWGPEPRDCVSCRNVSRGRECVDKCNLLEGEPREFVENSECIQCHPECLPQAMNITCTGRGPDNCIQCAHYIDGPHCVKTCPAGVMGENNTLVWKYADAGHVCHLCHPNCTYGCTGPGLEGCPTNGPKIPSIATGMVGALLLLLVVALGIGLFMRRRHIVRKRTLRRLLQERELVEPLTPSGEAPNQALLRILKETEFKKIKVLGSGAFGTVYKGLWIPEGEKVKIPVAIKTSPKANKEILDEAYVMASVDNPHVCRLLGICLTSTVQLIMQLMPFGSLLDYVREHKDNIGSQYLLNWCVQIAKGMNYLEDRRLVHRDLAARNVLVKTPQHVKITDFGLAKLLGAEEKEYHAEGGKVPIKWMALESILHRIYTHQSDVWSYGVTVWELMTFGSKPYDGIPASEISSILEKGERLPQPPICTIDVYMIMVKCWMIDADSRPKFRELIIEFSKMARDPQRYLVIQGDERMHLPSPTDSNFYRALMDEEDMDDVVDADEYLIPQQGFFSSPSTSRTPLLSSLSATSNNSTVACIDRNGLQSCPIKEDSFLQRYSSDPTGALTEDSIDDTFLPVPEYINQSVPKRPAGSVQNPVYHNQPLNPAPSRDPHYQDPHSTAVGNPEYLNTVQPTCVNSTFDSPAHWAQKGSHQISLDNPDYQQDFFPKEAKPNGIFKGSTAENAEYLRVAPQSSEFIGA
Sequence of EGFR del19 (P00533 other isoform, or with tags, fused parts or gaps del 1-668/del 746-750 limits assumed): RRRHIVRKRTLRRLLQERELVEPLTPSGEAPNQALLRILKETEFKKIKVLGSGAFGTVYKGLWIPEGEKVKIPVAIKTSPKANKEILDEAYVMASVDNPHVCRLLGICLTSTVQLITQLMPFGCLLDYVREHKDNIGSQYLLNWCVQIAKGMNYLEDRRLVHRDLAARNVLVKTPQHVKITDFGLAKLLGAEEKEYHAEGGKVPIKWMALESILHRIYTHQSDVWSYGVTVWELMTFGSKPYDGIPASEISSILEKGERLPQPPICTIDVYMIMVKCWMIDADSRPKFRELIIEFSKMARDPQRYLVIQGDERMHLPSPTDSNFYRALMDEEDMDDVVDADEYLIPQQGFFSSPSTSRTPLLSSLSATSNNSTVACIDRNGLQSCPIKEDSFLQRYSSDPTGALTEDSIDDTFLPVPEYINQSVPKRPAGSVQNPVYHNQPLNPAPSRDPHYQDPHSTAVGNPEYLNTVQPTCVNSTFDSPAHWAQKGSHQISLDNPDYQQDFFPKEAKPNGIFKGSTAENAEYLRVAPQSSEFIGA

Turning to `COc1cc(N2CCC(N3CCN(C(C)=O)CC3)CC2)ccc1Nc1ncc(Cl)c(Nc2ccccc2NS(C)(=O)=O)n1` [Example 19, N-(2-((2-((4-(4-(4-acetylpiperazin-1-yl)piperidin-1-yl)-2-methoxyphenyl)amino)-5-chloropyrimidin-4-yl)amino)phenyl)methanesulfonamide], the pIC50 in test [1] was 5.96; in the test on Ba/F3 EGFR wt. cell line, 5.51; on EGFR wt., 6.15; in test [2] (CellTiter-Glo, 72 hours), 6.01; at EGFR del19/T790M, 7.16; at EGFR del19/T790M/C797S (setting [4]) it was 7.38. For the same compound, the pIC50 was 9.15 at EGFR del19 and 6.18 in test [3] (CellTiter-Glo, 72 hours).
Take `COc1cc(C2CCN(CCO)CC2)ccc1Nc1ncc(Cl)c(Nc2ccccc2NS(C)(=O)=O)n1` [Example 13, N-(2-((5-chloro-2-((4-(1-(2-hydroxyethyl)piperidin-4-yl)-2-methoxyphenyl)amino)pyrimidin-4-yl)amino)phenyl)methanesulfonamide]: the pIC50 in test [1] was 6.01; with Ba/F3 EGFR wt. cell line it was 5.36; on EGFR wt. it was 5.72; in test [2] (CellTiter-Glo, 72 hours) it was 5.82; on EGFR del19/T790M, 6.60; at EGFR del19/T790M/C797S (setting [4]), 7.48. The pIC50 was 7.89 at EGFR del19 and 6.19 in test [3] (CellTiter-Glo, 72 hours).
With `CNC1CCN(c2ccc(Nc3ncc(Cl)c(Nc4ccccc4NS(C)(=O)=O)n3)c(OC)c2)CC1` [Example 40, N-(2-((5-chloro-2-((2-methoxy-4-(4-(methylamino)piperidin-1-yl)phenyl)amino)pyrimidin-4-yl)amino)phenyl)methanesulfonamide], the pIC50 in test [2] (CellTiter-Glo, 72 hours) is 6.30.
As for `COc1cc(C2CCN(C3CCN(CCO)CC3)CC2)ccc1Nc1ncc(Cl)c(Nc2ccccc2NS(C)(=O)=O)n1` [Example 14, N-(2-((5-chloro-2-((4-(1′-(2-hydroxyethyl)-[1,4′-bipiperidin]-4-yl)-2-methoxyphenyl)amino)pyrimidin-4-yl)amino)phenyl)methanesulfonamide], the pIC50 is 6.30 in test [1]; 6.12 in the test with Ba/F3 EGFR wt. cell line; 5.85 at EGFR wt.; 6.96 in test [2] (CellTiter-Glo, 72 hours); 7.02 on EGFR del19/T790M; 7.47 at EGFR del19/T790M/C797S (setting [4]). Besides, the pIC50 on EGFR del19 is 8.22; in test [3] (CellTiter-Glo, 72 hours), 6.27.
Regarding `COc1cc(C2CCNCC2)ccc1Nc1ncc(Br)c(Nc2ccccc2NS(N)(=O)=O)n1` [Example 7, 4-(4-((5-bromo-4-((2-(sulfamoylamino)phenyl)amino)pyrimidin-2-yl)amino)-3-methoxyphenyl)piperidine], the pIC50 is 6.33 in test [1]; 5.47 in the test on Ba/F3 EGFR wt. cell line; under 5.00 at EGFR wt.; 5.48 in test [2] (CellTiter-Glo, 72 hours); 7.42 at EGFR del19/T790M; 8.70 on EGFR del19/T790M/C797S (setting [4]). Also, the pIC50 is 7.10 on EGFR del19 and 5.80 in test [3] (CellTiter-Glo, 72 hours).
Consider `COc1cc(N2CCC(N(C)C)CC2)ccc1Nc1ncc(Cl)c(Nc2ccccc2NS(N)(=O)=O)n1` [Example 36], for which, in test [2] (CellTiter-Glo, 72 hours), the pIC50 was 6.03.
For `COc1cc(N2CCN(C3CCNCC3)CC2)ccc1Nc1ncc(Cl)c(Nc2ccccc2NS(C)(=O)=O)n1` [Example 27, N-(2-((5-chloro-2-((2-methoxy-4-(4-(piperidin-4-yl)piperazin-1-yl)phenyl)amino)pyrimidin-4-yl)amino)phenyl)methanesulfonamide], the pIC50 is 5.96 in test [1]; 6.55 at EGFR wt.; under 5.00 in test [2] (CellTiter-Glo, 72 hours); 7.68 on EGFR del19/T790M; 9.00 on EGFR del19/T790M/C797S (setting [4]); 9.52 at EGFR del19. Moreover, the pIC50 in test [3] (CellTiter-Glo, 72 hours) was 6.03.
Regarding `COc1cc(C2CCNCC2)ccc1Nc1ncc(Cl)c(Nc2ccccc2NS(C)(=O)=O)n1` [Example 1, N-(2-((5-chloro-2-((2-methoxy-4-(piperidin-4-yl)phenyl)amino)pyrimidin-4-yl)amino)phenyl)methanesulfonamide], the pIC50 is 5.18 in test [1]; under 4.82 in the test with Ba/F3 EGFR wt. cell line; 5.15 in test [3] (CellTiter-Glo, 72 hours).
Regarding `COc1cc(N2CCC(N)CC2)ccc1Nc1ncc(Cl)c(Nc2ccccc2NS(C)(=O)=O)n1` [Example 38, N-(2-((2-((4-(4-aminopiperidin-1-yl)-2-methoxyphenyl)amino)-5-chloropyrimidin-4-yl)amino)phenyl)methanesulfonamide], in test [2] (CellTiter-Glo, 72 hours), the pIC50 is 6.08.
Regarding `COc1cc(N2CCNCC2)ccc1Nc1ncc(Cl)c(Nc2ccccc2NS(C)(=O)=O)n1` [Example 23, N-(2-((5-chloro-2-((2-methoxy-4-(piperazin-1-yl)phenyl)amino)pyrimidin-4-yl)amino)phenyl)methanesulfonamide], the pIC50 is 5.57 at EGFR wt., 7.49 on EGFR del19/T790M, 7.54 at EGFR del19/T790M/C797S (setting [4]) and 7.60 at EGFR del19.
Regarding `COc1cc(N2CCC(N3C[C@@H](C)N[C@@H](C)C3)CC2)ccc1Nc1ncc(Cl)c(Nc2ccccc2NS(C)(=O)=O)n1` [Example 33, N-(2-((5-chloro-2-((4-(4-((3R,5S)-3,5-dimethylpiperazin-1-yl)piperidin-1-yl)-2-methoxyphenyl)amino)pyrimidin-4-yl)amino)phenyl)methanesulfonamide], the pIC50 was 6.92 in test [2] (CellTiter-Glo, 72 hours) and over 9.00 on EGFR del19/T790M/C797S (setting [4]).
Turning to `COc1cc(N2CCC(N3CCCC3)CC2)ccc1Nc1ncc(Cl)c(Nc2ccccc2NS(C)(=O)=O)n1` [Example 35, N-(2-((5-chloro-2-((2-methoxy-4-(4-(pyrrolidin-1-yl)piperidin-1-yl)phenyl)amino)pyrimidin-4-yl)amino)phenyl)methanesulfonamide], the pIC50 on EGFR wt. was 7.57; in test [2] (CellTiter-Glo, 72 hours) it was 7.08; on EGFR del19/T790M, 8.08; on EGFR del19/T790M/C797S (setting [4]) it was over 9.00; at EGFR del19 it was 8.96.
As to `COc1cc(N2CCC(N3CCN(CCO)CC3)CC2)ccc1Nc1ncc(Cl)c(Nc2ccccc2NS(C)(=O)=O)n1` [Example 22, N-(2-((5-chloro-2-((4-(4-(4-(2-hydroxyethyl)piperazin-1-yl)piperidin-1-yl)-2-methoxyphenyl)amino)pyrimidin-4-yl)amino)phenyl)methanesulfonamide], the pIC50 was 6.05 in test [1]; 6.59 at EGFR wt.; 5.89 in test [2] (72 h); 7.51 at EGFR del19/T790M; 9.10 against EGFR del19/T790M/C797S; 9.40 at EGFR del19. In addition, the pIC50 in test [3] (72 h) is 6.41.
In the case of `COc1cc(N2CCC(N3CCOCC3)CC2)ccc1Nc1ncc(Cl)c(Nc2ccccc2NS(C)(=O)=O)n1` [Example 34, N-(2-((5-chloro-2-((2-methoxy-4-(4-morpholinopiperidin-1-yl)phenyl)amino)pyrimidin-4-yl)amino)phenyl)methanesulfonamide], the pIC50 in test [2] (CellTiter-Glo, 72 hours) is 6.80; on EGFR del19/T790M/C797S (setting [4]) it was over 9.00.
Turning to `COc1cc(N2CCNCC2)ccc1Nc1ncc(C(F)(F)F)c(Nc2ccccc2NS(C)(=O)=O)n1` [Example 31, N-(2-((2-((2-methoxy-4-(piperazin-4-yl)phenyl)amino)-5-(trifluoromethyl)pyrimidin-4-yl)amino)phenyl)methanesulfonamide], the pIC50 at EGFR wt. is 6.24; on EGFR del19/T790M it was 7.54; on EGFR del19/T790M/C797S (setting [4]) it was 8.15; on EGFR del19 it was 7.44.
